Test results reported in PubChem BioAssay AID1159564 (GlaxoSmithKline (GSK), 2015).
Activity calls are given as the source filed them. No rule for the calls is given here.

Test system: L. donovani-infected THP-1 macrophages, intracellular amastigote imaging
Experiment: intracellular L. donovani amastigote inhibition, imaging, THP-1 host macrophages, host toxicity (AID 1159564)
[1] = measured here: THP-1 host cell toxicity
[2] = measured here: amastigotes per macrophage

O=[N+]([O-])c1ccc(-c2nnn(-c3ccc(Cl)cc3)n2)o1
IC50: > 50 µM (inactive) | IC50 [1]: > 50 µM | IC50 [2]: > 50 µM

Clc1ccc(C(CC2CCCCO2)Cn2cncn2)c(Cl)c1 (stereo not given)
IC50: > 50 µM (inactive) | IC50 [1]: > 50 µM | IC50 [2]: > 50 µM

CCOc1ccc(Nc2ccc(S(=O)(=O)N3CCN(C)CC3)cc2[N+](=O)[O-])cc1OCC
IC50: 7.9 µM | IC50 [1]: 13 µM | IC50 [2]: 5 µM

Nc1ncnc2c1ncn2[C@@H]1O[C@H](CO)C[C@H]1O
IC50: > 50 µM (inactive) | IC50 [1]: > 50 µM | IC50 [2]: > 50 µM

N#Cc1ccc(S(=O)(=O)N2CCN(Cc3cccc(-c4ccncc4)c3)CC2)cc1
IC50: > 50 µM (inactive) | IC50 [1]: > 50 µM | IC50 [2]: 1.3 µM

COc1ccc(Oc2ccc(C(C)N(C)c3ncc4c(N)nc(N)nc4n3)cc2)cc1 (stereo not given)
IC50: 0.1 µM | IC50 [1]: 16 µM | IC50 [2]: 0.05 µM

NC(=O)c1cc(F)ccc1Nc1nc(NC2CCC(O)CC2)ncc1Cl (stereo not given)
IC50: 1.3 µM | IC50 [1]: 0.63 µM | IC50 [2]: 0.79 µM

CC(CNS(=O)(=O)c1ccc(OC(F)F)cc1)c1ccc(NC(=O)c2ccncc2)cc1 (stereo not given)
IC50: > 50 µM (inactive) | IC50 [1]: 16 µM | IC50 [2]: 5 µM

c1ccc(Nc2nc(-c3ccccn3)cc(N3CCOCC3)n2)cc1
IC50: 2 µM | IC50 [1]: > 50 µM | IC50 [2]: 1.3 µM

Oc1c(-c2n[nH]c(Cc3ccc(Cl)cc3)n2)ncc2cccnc12
IC50: 1.3 µM | IC50 [1]: 20 µM | IC50 [2]: 1 µM

Cc1ccc(CNC2CCN(C[C@@H]3Cn4c(=O)ccc5ccc(=O)n3c54)CC2)cc1F
IC50: > 50 µM (inactive) | IC50 [1]: > 50 µM | IC50 [2]: > 50 µM

CCOc1ccccc1C(=O)Nc1nnc(-c2ccc3c(c2)OCO3)s1
IC50: 0.5 µM | IC50 [1]: > 50 µM | IC50 [2]: 0.32 µM

COc1ccc(C(=O)Nc2c(C)nn(COc3cccc(C(F)(F)F)c3)c2C)cc1
IC50: > 50 µM (inactive) | IC50 [1]: 32 µM | IC50 [2]: > 50 µM

Cc1nc2c(-c3n[nH]c(-c4ccccc4N)n3)cccn2c1C
IC50: 1.6 µM | IC50 [1]: 7.9 µM | IC50 [2]: 1 µM

O=C(NCC(c1cccs1)N1CCOCC1)c1ccc([N+](=O)[O-])o1 (stereo not given)
IC50: 25 µM | IC50 [1]: 25 µM | IC50 [2]: 16 µM

N#Cc1ccccc1S(=O)(=O)N1CCN(C(=O)CNC(=O)c2ccc3c(c2)OCO3)CC1
IC50: 5 µM | IC50 [1]: > 50 µM | IC50 [2]: 1.6 µM

COc1ccc(C)cc1-c1csc(NC(=O)C(C)n2ccnc2)n1 (stereo not given)
IC50: > 50 µM (inactive) | IC50 [1]: > 50 µM | IC50 [2]: > 50 µM

COc1ccccc1-c1c(C)[nH]c2nc(N)nc(C)c12
IC50: 25 µM | IC50 [1]: > 50 µM | IC50 [2]: 16 µM

O=C(Cc1ccc2c(c1)CCC2)Nc1n[nH]c(-c2ccccn2)n1
IC50: 6.3 µM | IC50 [1]: > 50 µM | IC50 [2]: 6.3 µM

Cc1nn(-c2ccccc2)nc1CNC(=O)CN(Cc1ccccn1)Cc1ccccn1
IC50: 5 µM | IC50 [1]: 63 µM | IC50 [2]: 5 µM

CC(C)(C)c1csc(NC(=O)c2ccc([N+](=O)[O-])s2)n1
IC50: 3.2 µM | IC50 [1]: > 50 µM | IC50 [2]: 2.5 µM

NC(=O)c1ncccc1Nc1nc(NC2CCC(O)CC2)ncc1Br (stereo not given)
IC50: 1.3 µM | IC50 [1]: 0.4 µM | IC50 [2]: 0.63 µM

O=c1[nH]c(NCCCNCc2cc(Br)cc(Br)c2)nc2ccsc12
IC50: 5 µM | IC50 [1]: 16 µM | IC50 [2]: 2.5 µM

O=C(c1cccc(Nc2ncc(-c3ccc4c(c3)OCO4)cn2)c1)N1CCOCC1
IC50: 4 µM | IC50 [1]: 63 µM | IC50 [2]: 1.6 µM

CS(=O)(=O)c1cccc(CNC(=O)c2cncc(N3CCN(c4ccc(F)cc4)CC3)c2)c1
IC50: > 50 µM (inactive) | IC50 [1]: > 50 µM | IC50 [2]: > 50 µM

COc1ccc(NS(=O)(=O)c2cc(NC(=O)c3ccc([N+](=O)[O-])s3)ccc2OC)cc1
IC50: 0.79 µM | IC50 [1]: 13 µM | IC50 [2]: 0.79 µM

O=c1[nH]cnc2c([C@@H]3O[C@H](CO)[C@@H](O)[C@H]3O)[nH]nc12
IC50: 2 µM | IC50 [1]: > 50 µM | IC50 [2]: 0.4 µM

Cc1cc(C)n(-c2nc(NC(C)(C)C)nc(N3CCOCC3)n2)n1
IC50: 7.9 µM | IC50 [1]: > 50 µM | IC50 [2]: 4 µM

Cc1ccc(NC(=O)C(C)n2nc([N+](=O)[O-])c(Br)c2C)cc1Cl (stereo not given)
IC50: > 50 µM (inactive) | IC50 [1]: > 50 µM | IC50 [2]: > 50 µM

OC1CCC(Nc2nccc(-c3sc(C4CCOCC4)nc3-c3ccc(F)c(F)c3)n2)CC1 (stereo not given)
IC50: 5 µM | IC50 [1]: 20 µM | IC50 [2]: 2.5 µM

Cc1ccc2ccc(C(Nc3ccccn3)c3cccnc3)c(O)c2n1 (stereo not given)
IC50: 13 µM | IC50 [1]: > 50 µM | IC50 [2]: 7.9 µM

CNS(=O)(=O)c1ccccc1Nc1nc(Nc2cc(C)nn2C)ncc1Cl
IC50: 1 µM | IC50 [1]: 0.2 µM | IC50 [2]: 0.25 µM

CCNc1cc(-c2ccccn2)nc(Nc2ccc(OC)cc2)n1
IC50: 0.5 µM | IC50 [1]: 25 µM | IC50 [2]: 0.4 µM

CC(c1ccccn1)N(C)Cc1nc2ccccc2n1C(C)C (stereo not given)
IC50: 3.2 µM | IC50 [1]: 16 µM | IC50 [2]: 2 µM

Cc1nc(N2CC(C)OC(C)C2)sc1C(=O)Nc1ccc2c(c1)OCO2 (stereo not given)
IC50: 7.9 µM | IC50 [1]: > 50 µM | IC50 [2]: 3.2 µM

O=C(c1cnn(-c2ccccc2)n1)N1CCCC(n2ccnc2)C1 (stereo not given)
IC50: > 50 µM (inactive) | IC50 [1]: > 50 µM | IC50 [2]: 0.63 µM

Oc1c(-c2n[nH]c(Cc3ccc(F)cc3)n2)ncc2cccnc12
IC50: 1 µM | IC50 [1]: 20 µM | IC50 [2]: 1 µM

CCCN1CCN(Cc2ccc(S(=O)(=O)Nc3cccc(C)c3)cc2)CC1
IC50: > 50 µM (inactive) | IC50 [1]: > 50 µM | IC50 [2]: > 50 µM

Cc1cc(N(C)C)nc(Nc2ccccc2C)n1
IC50: 32 µM | IC50 [1]: 40 µM | IC50 [2]: 16 µM

CCC1Oc2cc(S(=O)(=O)N(C)CC(=O)N3CCc4ccccc4C3)c(C)cc2NC1=O (stereo not given)
IC50: > 50 µM (inactive) | IC50 [1]: > 50 µM | IC50 [2]: 32 µM

CN(C)Cc1ccc(N2CCC(NS(=O)(=O)c3ccc(Cl)cc3)CC2)cc1
IC50: > 50 µM (inactive) | IC50 [1]: 25 µM | IC50 [2]: 25 µM

CNc1cc(C)nc(C2CN(C(=O)c3n[nH]c4ccccc34)CCO2)c1 (stereo not given)
IC50: > 50 µM (inactive) | IC50 [1]: > 50 µM | IC50 [2]: > 50 µM

CC(Cn1ccnc1)NC(=O)COc1ccc(Cl)c(Cl)c1 (stereo not given)
IC50: > 50 µM (inactive) | IC50 [1]: > 50 µM | IC50 [2]: > 50 µM

COc1cc(NC(=O)Nc2cccc(CNC(=O)OC3CCCCC3)c2)ccc1-c1cnco1
IC50: > 50 µM (inactive) | IC50 [1]: 10 µM | IC50 [2]: 20 µM

CC(=O)Nc1cccc(Nc2ncnc3nc[nH]c23)c1
IC50: > 50 µM (inactive) | IC50 [1]: 10 µM | IC50 [2]: 40 µM

CCc1cc(C(=O)Nc2nccn2-c2ccccc2)cs1
IC50: 13 µM | IC50 [1]: 32 µM | IC50 [2]: 5 µM

C=CCn1nc([N+](=O)[O-])nc1Oc1ccc(Cl)cc1Cl
IC50: > 50 µM (inactive) | IC50 [1]: 40 µM | IC50 [2]: 40 µM

CN(Cc1ccc(F)cc1)c1ccc(OCC(=O)N2CCCCC2c2cccnc2)nn1 (stereo not given)
IC50: > 50 µM (inactive) | IC50 [1]: 32 µM | IC50 [2]: > 50 µM

O=c1cc(NCCCNC2CCOc3c(I)cc(Cl)cc32)[nH]c2ccccc12 (stereo not given)
IC50: 20 µM | IC50 [1]: 20 µM | IC50 [2]: 13 µM

Cc1[nH]nc2c1C(c1ccc(OCc3ccccc3F)cc1)SCC(=O)N2 (stereo not given)
IC50: > 50 µM (inactive) | IC50 [1]: > 50 µM | IC50 [2]: > 50 µM
